Format in all cases: cell-based
One assay has as its system MOLM-13. In words: Cell proliferation inhibition (CellTiter-Glo), MOLM-13 cells. The following applies: Homo sapiens, MOLM-13 (MLL-AF9), Table 3. The procedure, abridged: (§1)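 Leukemia lines in RPMI-1640/10% FBS at 37° C. were exposed in duplicate to seven compound concentrations (5.00×10^−6 to 6.86×10^−9 M), with 0.2% DMSO as 100% proliferation. At day 4 cells were diluted 1:4 in fresh medium containing compound. Viability was read by CellTiter-Glo luminescence at day 4 and day 7.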
(In general: In ATP-based viability assays light output follows the ATP content of the culture.)

The next assay concerns OCI-AML3. In words: Cell proliferation inhibition (CellTiter-Glo), OCI-AML3 cells. The following applies: Homo sapiens. As to the method: (§2) The present example evaluates the ability of compounds described herein, inhibitors of Menin/MLL interaction, to inhibit cell proliferation. The proliferation inhibitory effect was investigated in human MLL-leukemia cells selected on the bases of MLL fusion proteins and listed in the table below.
(§3) ATP is present in all metabolically active cells and is considered as a marker for cell viability and proliferation. The metabolic cell activity was determined using the CellTiter-Glo kit from Promega, an ATP monitoring system based on the production of luminescence by the reaction of ATP with added UltraGlo® recombinant luciferase (Kawano et al., 2016, PLOS One, 8:11(7):e0158888), according to the supplier's experimental recommendations. The assay is based on a 96 well plate format. All experiments were carried out in duplicate in one test occasion.
(§4) Test items were dissolved at 20 mM in DMSO with purity ≥99.9% (Sigma catalog no. D8418) and stored at −20° C. Cells were maintained in RPMI-1640 medium (Invitrogen catalog no. 618700) supplemented with 10% of Heat Inactivated FBS (Invitrogen catalog no. 10500) and 1% Pen-Strep (Invitrogen catalog no. 15140) and cultured at 37° C. in a humidified incubator with 5% CO2. Cell lines were grown in suspension and the cell density was maintained in a range of 5×10^4-1×10^6 viable cells/ml where possible. Cells were pelleted at 130 g×5 min.
(§5) Serial dilutions of compounds 1 to 3 in DMSO 100% were prepared starting from a 2.5 mM solutions (prepared by diluting 1:8 the 20 mM stock solution) to generate a 7 point concentration response curve (CRC). Seven concentrations of test compounds (e.g., 5.00×10^−6-1.67×10^−6-5.56×10^−7-1.85×10^−7-6.17×10^−8-2.06×10^−8-6.86×10^−9 M) were assessed in duplicate in an individual test occasion in parallel in the selected cell lines. KO-539 was used as a reference compound and tested in duplicate at seven similar concentrations. 100% of proliferation was represented by the untreated cells (0.2% DMSO).
(§6) Cell proliferation inhibition was monitored at both the following end points: Day 4 (T4) and Day 7 (T7). For the appropriate cell density during the exponential cell growth and re-supply with fresh compound solution at T4, cells were diluted (1:4) with fresh medium containing the compound concentration (1×).
(§7) For each plate to test, one 0.4 μL copy plate and four 0.3 μL copy plates were stamped into 96-well plates not treated for cell adhesion (Sarstedt—cat. no. 82.1581.001) by acoustic liquid handling (Echo) at a concentration which was 500 fold the final assay concentration. Stamped plates were stored at −20° C.
(§8) On Day 0, the day of the experiment cell line suspensions were counted by Cell Viability Analyser, Vi-CELL (Beckman Coulter AY15292), and diluted with fresh medium to obtain the following cell densities: K-562 500 c/ml, MOLM-13 1,000 c/ml, MV4-11 10,000 c/ml, OCI-AML-3 500 c/ml, and U-937 500-1,000 c/ml. 200 μL/well and 150 μL/well of cell suspension were added into the 0.4 μL/well and 0.3 μL/well compound plates, respectively. Cell plate containing 200 μL/well suspension were incubated at 37° C. in a humidified incubator with 5% CO2. From each well of the 150 μL/well cell assay plate, 100 μL were harvested and transferred into a 96-well Optiplate (Perkin Elmer, cat. no. 6005290). Cell viability was measured as described below.
(§9) On Day 4, 150p/well of fresh medium was added into a new 0.3 μL/well copy compound plates. From each well of the 200 μL/well cell assay plate, 100 μL was sampled for the cell viability measurement as described below. 50p was harvested and added to the 150p/well compound plate prepared as described in the first point to dilute 1:4 the cell suspension. The cell assay plate diluted and containing 200 μL/well suspension was incubated at 37° C. in a humidified incubator with 5% CO2.
(§10) On Day 4, 150p/well of fresh medium was added into a new 0.3 μL/well copy compound plates. […]

The test system of a further assay is K-562. Kind of assay: Cell proliferation inhibition (CellTiter-Glo), K-562 cells. The settings on record: Homo sapiens, K-562 (BCR-ABL), Table 3. The procedure, abridged: as §1
Another assay concerns MV4-11. In words: Cell proliferation inhibition (CellTiter-Glo), MV4-11 cells. The settings on record: Homo sapiens, MV4-11 (MLL-AF4), Table 3. In outline:
as §1

In another assay the test system is U-937. Kind of assay: Cell proliferation inhibition (CellTiter-Glo), U-937 cells. The settings on record: Homo sapiens, U-937 (MLL-wt), Table 3. The procedure:
as §2, §3, §4, §5, §6, §7, §8, §9, §10

[1] abbreviates: 96 h, 4 d, read-out: MOLM13 μM 4 d.
Where [2] appears, read: 168 h, 7 d, read-out: MOLM13 μM 7 d.
Setting [3] is: OCI-AML-3, 96 h, 4 d, Table 3, read-out: OCI-AML3 IC50 μM 4 d.
The mark [4] stands for this setting: OCI-AML-3, 168 h, 7 d, Table 3, read-out: OCI-AML3 IC50 μM 7 d.
Setting [5] is: K562, 96 h, 4 d, read-out: K-562 IC50 μM 4 d.
[6] abbreviates: K562, 168 h, 7 d, read-out: K-562 IC50 μM 7 d.
Setting [7] is: 96 h, 4 d, read-out: MV4-11 IC50 μM 4 d.
Setting [8] is: 168 h, 7 d, read-out: MV4-11 IC50 μM 7 d.
[9] abbreviates: 96 h, 4 d, read-out: U-937 IC50 μM 4 d.
[10] abbreviates: 168 h, 7 d, read-out: U-937 IC50 μM 7 d.

Here are results for 5 compounds from patent US20240124467A1, “FUSED PYRIMIDINE COMPOUNDS AS INHIBITORS OF MENIN-MLL INTERACTION” (Biomea Fusion, Inc., priority 2020, published 2024).

Like-named read-outs stand apart in the source and are kept apart here.

`C=CC(=O)Nc1ccc(CC(=O)Nc2ccc(-c3cc4c(N5CCOCC5)ncnc4[nH]3)cc2)nc1` [Compound B0700-314, N-(6-(2-((4-(4-morpholino-7H-pyrrolo[2,3-d]pyrimidin-6-yl)phenyl)amino)-2-oxoethyl)pyridin-3-yl)acrylamide]: the IC50 is 191 nM in the assay on MOLM-13 (setting [1]); 178 nM in the assay on MOLM-13 (setting [2]); 0.145 µM in the assay with OCI-AML3 (setting [3]); 0.095 µM in the assay with OCI-AML3 (setting [4]); 0.55 µM in the assay with K-562 (setting [5]); 0.468 µM in the assay with K-562 (setting [6]). Further, the IC50 in the assay with MV4-11 (setting [7]) amounted to 0.145 µM; in the assay with MV4-11 (setting [8]), 0.129 µM; in the assay on U-937 (setting [9]), 0.288 µM; with U-937 (setting [10]) it was 0.158 µM.
As to `C=CC(=O)Nc1ccc(CC(=O)NC2CCN(c3nc4c(N5CCOCC5)ncnc4[nH]3)CC2)cc1` [Compound B0700-315, N-(4-(2-((1-(6-morpholino-9H-purin-8-yl)piperidin-4-yl)amino)-2-oxoethyl)phenyl)acrylamide], the IC50 is more than 5000 nM in the assay on MOLM-13 (setting [1]); more than 5000 nM in the assay with MOLM-13 (setting [2]); more than 5 µM in the assay on OCI-AML3 (setting [3]); more than 5 µM in the assay on OCI-AML3 (setting [4]); more than 5 µM in the assay on K-562 (setting [5]); more than 5 µM in the assay on K-562 (setting [6]). For the same compound, the IC50 in the assay with MV4-11 (setting [7]), with MV4-11 (setting [8]), in the assay with U-937 (setting [9]) and with U-937 (setting [10]) was more than 5 µM each time.
Take `C=CC(=O)N1CC(N2CCC(NC(=O)Nc3ccc(-c4cc5c(N6CCOCC6)ncnc5[nH]4)cc3)CC2)C1` [Compound B0700-330, 1-(1-(1-acryloylazetidin-3-yl)piperidin-4-yl)-3-(4-(4-morpholino-7H-pyrrolo[2,3-d]pyrimidin-6-yl)phenyl)urea]: the IC50 in the assay on MOLM-13 (setting [1]) came to 631 nM; with MOLM-13 (setting [2]), 447 nM; in the assay with OCI-AML3 (setting [3]), 1.05 µM; in the assay with OCI-AML3 (setting [4]) it was 0.813 µM; in the assay on K-562 (setting [5]), 4.68 µM; in the assay on K-562 (setting [6]), 1 µM. In addition, the IC50 in the assay with MV4-11 (setting [7]) is 0.646 µM; in the assay on MV4-11 (setting [8]), 0.38 µM; in the assay on U-937 (setting [9]) it was 1.62 µM; with U-937 (setting [10]) it was 1.05 µM.
As for `C=CC(=O)N1CC(N2CCC(CC(=O)Nc3ccc(-c4cc5c(N6CCOCC6)ncnc5[nH]4)cc3)CC2)C1` [Compound B0700-331, 2-(1-(1-acryloylazetidin-3-yl)piperidin-4-yl)-N-(4-(4-morpholino-7H-pyrrolo[2,3-d]pyrimidin-6-yl)phenyl)acetamide], the IC50 in the assay on MOLM-13 (setting [1]) was 55 nM; in the assay on MOLM-13 (setting [2]), 30 nM; in the assay with OCI-AML3 (setting [3]), 0.251 µM; with OCI-AML3 (setting [4]) it was 0.115 µM; with K-562 (setting [5]), 0.676 µM; with K-562 (setting [6]), 0.129 µM. In addition, the IC50 is 0.047 µM in the assay with MV4-11 (setting [7]), 0.034 µM with MV4-11 (setting [8]), 0.347 µM in the assay with U-937 (setting [9]) and 0.065 µM in the assay with U-937 (setting [10]).
In the case of `C=CC(=O)N1CC(N2CCC[C@H](NC(=O)Nc3ccc(-c4cc5c(N6CCOCC6)ncnc5[nH]4)cc3)C2)C1` [Compound B0700-332, (S)-1-(1-(1-acryloylazetidin-3-yl)piperidin-3-yl)-3-(4-(4-morpholino-7H-pyrrolo[2,3-d]pyrimidin-6-yl)phenyl)urea], the IC50 with MOLM-13 (setting [1]) stood at 324 nM; in the assay on MOLM-13 (setting [2]), 316 nM; in the assay on OCI-AML3 (setting [3]), 0.955 µM; in the assay on OCI-AML3 (setting [4]), 0.24 µM; in the assay on K-562 (setting [5]) it was 1.86 µM; in the assay on K-562 (setting [6]), 1.66 µM. The IC50 in the assay on MV4-11 (setting [7]) came out at 0.38 µM; in the assay with MV4-11 (setting [8]), 0.151 µM; in the assay on U-937 (setting [9]), 1.2 µM; with U-937 (setting [10]), 0.457 µM.
